# From paper PMC9710775, “Bitter taste sensitivity in domestic dogs (Canis familiaris) and its relevance to bitter deterrents of ingestion” (PLOS ONE, 2022)
# pEC50: −log10 of the molar value. Read-outs that look alike come from different tables or passages of the source.
# Experiments:
# Experiment in all cases: calcium imaging (Cal520-AM), HEK293T cells
# Type in all cases: cell-based
# dTas2r4 = biological target: T1, dTas2r4 (Canis lupus, UniProt A0A8I3SCV7)
# T1 construct: gene TAS2R4; HEK293T-PEAKrapid cells with Galpha16i/o44
# T1 sequence (A0A8I3SCV7 1-299): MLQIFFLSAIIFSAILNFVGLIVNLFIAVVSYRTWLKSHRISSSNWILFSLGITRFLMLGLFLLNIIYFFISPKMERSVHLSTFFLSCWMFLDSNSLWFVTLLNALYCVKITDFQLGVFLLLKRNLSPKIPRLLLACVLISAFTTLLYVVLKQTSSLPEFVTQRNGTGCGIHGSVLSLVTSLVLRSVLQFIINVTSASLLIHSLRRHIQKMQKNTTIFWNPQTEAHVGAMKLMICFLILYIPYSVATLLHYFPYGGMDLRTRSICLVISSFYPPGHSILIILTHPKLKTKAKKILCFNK
# Description: calcium imaging (Cal520-AM), HEK293T cells on dTas2r4
# dTas2r1 = biological target: T2, dTas2r1 (Canis lupus, UniProt Q2ABE0); conditions: agonist; Galpha16i/o44 cells; lowest concentration differing from mock cells; EC50 not determined
# T2 construct: gene TAS2R1; HEK293T-PEAKrapid cells with Galpha16i/o44; gene on dog chromosome 34
# T2 sequence (Q2ABE0 1-297): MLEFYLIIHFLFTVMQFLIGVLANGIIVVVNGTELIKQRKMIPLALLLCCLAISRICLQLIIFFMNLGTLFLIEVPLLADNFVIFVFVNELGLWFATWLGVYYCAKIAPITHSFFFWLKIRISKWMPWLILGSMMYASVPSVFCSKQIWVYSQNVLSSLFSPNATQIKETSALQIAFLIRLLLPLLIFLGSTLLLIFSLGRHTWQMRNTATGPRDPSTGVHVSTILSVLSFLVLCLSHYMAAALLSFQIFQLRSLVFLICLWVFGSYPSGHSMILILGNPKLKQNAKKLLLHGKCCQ
# Description: calcium imaging (Cal520-AM), HEK293T cells on dTas2r1
# dTas2r10 = biological target: T3, dTas2r10 (Canis lupus, UniProt Q2ABD4)
# T3 construct: gene TAS2R10; HEK293T-PEAKrapid cells with Galpha16i/o44
# T3 sequence (Q2ABD4 1-322): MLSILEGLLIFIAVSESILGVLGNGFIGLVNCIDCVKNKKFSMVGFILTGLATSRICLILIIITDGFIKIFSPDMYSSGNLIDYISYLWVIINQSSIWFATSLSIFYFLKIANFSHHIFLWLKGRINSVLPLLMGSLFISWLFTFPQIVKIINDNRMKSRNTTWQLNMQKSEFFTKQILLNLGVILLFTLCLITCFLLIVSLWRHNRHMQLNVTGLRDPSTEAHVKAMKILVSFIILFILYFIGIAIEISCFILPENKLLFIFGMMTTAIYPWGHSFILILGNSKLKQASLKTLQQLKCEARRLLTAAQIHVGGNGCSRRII
# Description: calcium imaging (Cal520-AM), HEK293T cells on dTas2r10
# dTas2r41 = biological target: T4, dTas2r41 (Canis lupus, UniProt A0A8I3NKU5); conditions: agonist; Galpha16i/o44 cells; lowest concentration differing from mock cells; EC50 not determined
# T4 construct: gene TAS2R41; HEK293T-PEAKrapid cells with Galpha16i/o44
# T4 sequence (A0A8I3NKU5 1-308): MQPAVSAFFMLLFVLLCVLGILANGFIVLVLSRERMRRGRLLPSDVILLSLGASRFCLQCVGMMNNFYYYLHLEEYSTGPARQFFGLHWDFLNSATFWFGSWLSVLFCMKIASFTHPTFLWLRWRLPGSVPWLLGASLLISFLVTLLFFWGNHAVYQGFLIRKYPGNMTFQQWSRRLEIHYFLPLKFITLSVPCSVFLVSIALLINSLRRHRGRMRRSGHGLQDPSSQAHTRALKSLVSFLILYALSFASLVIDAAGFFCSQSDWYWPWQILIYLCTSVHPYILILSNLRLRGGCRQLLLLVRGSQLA
# Description: calcium imaging (Cal520-AM), HEK293T cells on dTas2r41
# dTas2r5 = biological target: T5, dTas2r5 (Canis lupus, UniProt Q2ABD6)
# T5 construct: gene TAS2R5; HEK293T-PEAKrapid cells with Galpha16i/o44
# T5 sequence (Q2ABD6 1-295): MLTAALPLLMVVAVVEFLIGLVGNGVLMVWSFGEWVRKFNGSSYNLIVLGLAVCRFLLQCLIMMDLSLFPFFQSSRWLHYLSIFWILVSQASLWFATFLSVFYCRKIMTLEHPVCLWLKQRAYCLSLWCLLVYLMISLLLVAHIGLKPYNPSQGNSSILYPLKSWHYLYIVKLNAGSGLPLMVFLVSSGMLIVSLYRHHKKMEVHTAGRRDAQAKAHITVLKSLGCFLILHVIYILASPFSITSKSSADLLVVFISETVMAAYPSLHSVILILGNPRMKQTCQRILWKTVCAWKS
# Description: calcium imaging (Cal520-AM), HEK293T cells on dTas2r5
structure (smiles),measurement,setting,value
O=C1NS(=O)(=O)c2cc([N+](=O)[O-])ccc21 [6-Nitrosaccharin],pEC50,dTas2r4; read-out: dTas2r4,2.95
same,dTas2r1,dTas2r1,0.041 mM
COc1cccc2c1cc([N+](=O)[O-])c1c(C(=O)O)cc3c(c12)OCO3 [Aristolochic acid I],pEC50,dTas2r4,3.72
CC(=O)OC(C)(C)/C=C/C(=O)[C@](C)(O)[C@H]1[C@H](O)C[C@@]2(C)[C@@H]3CC=C4[C@@H](C[C@H](O)C(=O)C4(C)C)[C@]3(C)C(=O)C[C@]12C [Cucurbitacin B],pEC50,dTas2r10,5.62
CC[N+](CC)(CC(=O)Nc1c(C)cccc1C)Cc1ccccc1 [Denatonium benzoate],pEC50,dTas2r4; read-out: dTas2r4,2.36
O=c1cc(-c2ccccc2)oc2ccccc12 [Flavone],dTas2r1,dTas2r1,0.00082 mM
CC[N+](C)(CC)CCOC(=O)C(O)(c1ccccc1)C1CCCCC1 (stereo not drawn) [Oxyphenonium bromide],pEC50,dTas2r4; read-out: dTas2r4,2.32
same,dTas2r41,dTas2r41,11.11 mM
OC[C@H]1O[C@H](O[C@]2(CCl)O[C@H](CCl)[C@@H](O)[C@@H]2O)[C@H](O)[C@@H](O)[C@H]1Cl [Sucralose],pEC50,dTas2r5,1.37
